Read-outs that look alike come from different tables or passages of the source.
Assays:
[1] = test system: relapsed multiple myeloma; conditions: cited from earlier work
[2] = test system: multiple myeloma; conditions: bortezomib alone, cited from earlier work
[3] = test system: multiple myeloma; experiment: Response of the pharmacogenomic patient subset (studies 024, 025, 039, 040), EBMT criteria; type: in vivo, human; conditions: for NP, number of patients classified as progression / NR, number of patients classified as responder / NS, number of patients classified as stable disease: best response, discovery samples
Procedure: Patients assigned to the high-dose dexamethasone group received treatment for a maximum of 280 days. Patients in this treatment group received up to four 5-week treatment cycles, followed by up to five 4-week treatment cycles. Within each 5-week treatment cycle, the patient received dexamethasone 40 mg/day PO, once daily on Days 1 to 4, 9 to 12, and 17 to 20 of a 35-day cycle. Within each 4-week treatment cycle, the patient received dexamethasone 40 mg/day PO once daily on Days 1 to 4 of a 28 day cycle.
Pharmacogenomic tumor samples (bone marrow aspirate) were collected from patients for evaluation of the expression of global mRNA levels.
For those patients who participated in the pharmacogenomic portion of the study, correlation between RNA expression levels and response to therapy were evaluated descriptively. In addition, duration of response, time to disease progression, quality of life, and overall patient survival may be analyzed using RNA expression as a factor.
A total of 224 patient samples were assessed for pharmacogenomic analyses. […] All pharmacogenomic analyses relied on the European Group for Blood and Marrow Transplant (EBMT) criteria of response category.
The data set consisted of discovery samples matched with the patient's outcome as measured by best response and time to disease progression. For best response, each patient was classified as responder (NR), stable disease (NS), or progression (NP). For marker identification, the three response classes were further grouped into responders vs. non-responders (stable and progression) (NP+S), responders vs. progression, or progression vs. others (stable and responders) (NR+S). The analyses further separated the patients based on the treatment they received. […] Thus, the responder vs. non-responder analysis utilizes 79 vs. 84 samples. The responder vs. progression analysis utilizes 79 vs. 41 and the progression vs. other analysis utilizes 41 vs. 122 samples. For the dexamethasone analysis NR=25, NS=16, and NP=21. Accordingly, the responder vs. non-responder analysis utilizes 25 vs. 37 samples. The responder vs. progression analysis utilizes 25 vs. 21 and the progression vs. other analysis utilizes 21 vs. 41 samples.

In the case of CC(C)C[C@H](NC(=O)[C@H](Cc1ccccc1)NC(=O)c1cnccn1)B(O)O [bortezomib, N-pyrazinecarbonyl-L-phenylalanine-L-leucineboronic acid], the “CR+PR rate” value ([1]; bortezomib 1.0 mg/m^2) is listed as 30%, the “CR+PR rate” value ([1]; bortezomib 1.3 mg/m^2) is listed as 38% and the “CR+PR rate” value ([2]; 53 of 193 patients) is listed as 27%. The “overall response rate (CR+PR+MR)” value ([2]; 67 of 193 patients) was 35%, the “CR, number of patients” value ([3]; Study 024) was 1 and the “IE, number of patients” value ([3]; Study 024) was 0. For the same compound, the “MR, number of patients” value ([3]; Study 024) was 0, the “NC, number of patients” value ([3]; Study 024) was 1 and the “PD, number of patients” value ([3]; Study 024) was 4. For the same compound, the “PR, number of patients” value ([3]; Study 024) was 1, the “CR, number of patients” value ([3]; Study 025) was 2 and the “IE, number of patients” value ([3]; Study 025) was 5. For the same compound, the “MR, number of patients” value ([3]; Study 025) was 3, the “NC, number of patients” value ([3]; Study 025) was 10 and the “PD, number of patients” value ([3]; Study 025) was 14. For the same compound, the “PR, number of patients” value ([3]; Study 025) was 10, the “CR, number of patients” value ([3]; Study 040) was 1 and the “IE, number of patients” value ([3]; Study 040) was 2. For the same compound, the “MR, number of patients” value ([3]; Study 040) was 6, the “NC, number of patients” value ([3]; Study 040) was 13 and the “PD, number of patients” value ([3]; Study 040) was 8. The “PR, number of patients” value ([3]; Study 040) was 20, the “NP, number of patients classified as progression” value [3] was 41 and the “NR, number of patients classified as responder” value [3] was 79. The “NS, number of patients classified as stable disease” value [3] was 43, the “CR+PR rate” value ([3]; pharmacogenomic patient set) was 35% and the overall response rate ([3]; pharmacogenomic patient set) was 46.4%.
In the case of C[C@@H]1C[C@H]2[C@@H]3CCC4=CC(=O)C=C[C@]4(C)[C@@]3(F)[C@@H](O)C[C@]2(C)[C@@]1(O)C(=O)CO [dexamethasone], the “NP, number of patients classified as progression” value [3] is reported as 21, the “NR, number of patients classified as responder” value [3] is reported as 25 and the “NS, number of patients classified as stable disease” value [3] is reported as 16.

Reference: US8889354B2, “Methods for the identification, assessment, and treatment of patients with cancer therapy” (Millennium Pharmaceuticals, Inc., priority 2005, dated 2014)
